In PubChem BioAssay (NCI):
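Briefly, cells in 96-well plates were exposed to five compound concentrations for 48 h, and endpoints were estimated by linear interpolation. The concentration for 50% growth inhibition is given as GI50. TGI marks complete inhibition of growth.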

What was measured:
Assay in all cases: growth of human tumour cells (NCI), 48 h; in the data active means GI50 below about 0.43 µM; inactive means the rest
NCI-H23 lung = system: NCI-H23 lung
NCI-H460 lung = system: NCI-H460 lung
NCI-H522 lung = system: NCI-H522 lung
NCI/ADR-RES ovarian = system: NCI/ADR-RES ovarian
OVCAR-3 ovarian = system: OVCAR-3 ovarian
OVCAR-4 ovarian = system: OVCAR-4 ovarian
OVCAR-5 ovarian = system: OVCAR-5 ovarian
OVCAR-8 ovarian = system: OVCAR-8 ovarian
PC-3 prostate = system: PC-3 prostate
RPMI-8226 leukemia = system: RPMI-8226 leukemia
RXF 393 renal = system: RXF 393 renal
SF-268 CNS = system: SF-268 CNS
SF-295 CNS = system: SF-295 CNS
SF-539 CNS = system: SF-539 CNS
SK-MEL-2 melanoma = system: SK-MEL-2 melanoma
SK-MEL-28 melanoma = system: SK-MEL-28 melanoma
SK-MEL-5 melanoma = system: SK-MEL-5 melanoma
SK-OV-3 ovarian = system: SK-OV-3 ovarian
SN12C renal = system: SN12C renal
SNB-19 CNS = system: SNB-19 CNS
SNB-75 CNS = system: SNB-75 CNS
SR leukemia = system: SR leukemia
SW-620 colon = system: SW-620 colon
T-47D breast = system: T-47D breast
TK-10 renal = system: TK-10 renal
U251 CNS = system: U251 CNS
UACC-257 melanoma = system: UACC-257 melanoma
UACC-62 melanoma = system: UACC-62 melanoma
UO-31 renal = system: UO-31 renal

O=C(O)c1ccc(-c2ccc(C(=O)O)cc2I)c(I)c1
> 100 µM: TGI (NCI-H23 lung) | TGI (NCI-H460 lung) | TGI (NCI-H522 lung) | TGI (NCI/ADR-RES ovarian) | TGI (OVCAR-3 ovarian) | TGI (OVCAR-4 ovarian) | TGI (OVCAR-5 ovarian) | TGI (OVCAR-8 ovarian) | TGI (PC-3 prostate) | TGI (RPMI-8226 leukemia) | TGI (RXF 393 renal) | TGI (SF-268 CNS) | TGI (SF-295 CNS) | TGI (SF-539 CNS) | TGI (SK-MEL-2 melanoma) | TGI (SK-MEL-28 melanoma) | TGI (SK-MEL-5 melanoma) | TGI (SK-OV-3 ovarian) | TGI (SN12C renal) | TGI (SNB-19 CNS) | TGI (SNB-75 CNS) | TGI (SR leukemia) | TGI (SW-620 colon) | TGI (T-47D breast) | TGI (TK-10 renal) | TGI (U251 CNS) | TGI (UACC-257 melanoma) | TGI (UACC-62 melanoma) | TGI (UO-31 renal)
inactive: GI50 (NCI-H23 lung) > 100 µM | GI50 (NCI-H460 lung) > 100 µM | GI50 (NCI-H522 lung) > 100 µM | GI50 (NCI/ADR-RES ovarian) > 100 µM | GI50 (OVCAR-3 ovarian) > 100 µM | GI50 (OVCAR-4 ovarian) > 100 µM | GI50 (OVCAR-5 ovarian) > 100 µM | GI50 (OVCAR-8 ovarian) > 100 µM | GI50 (PC-3 prostate) > 100 µM | GI50 (RPMI-8226 leukemia) > 100 µM | GI50 (RXF 393 renal) > 100 µM | GI50 (SF-268 CNS) > 100 µM | GI50 (SF-295 CNS) > 100 µM | GI50 (SF-539 CNS) > 100 µM | GI50 (SK-MEL-2 melanoma) > 100 µM | GI50 (SK-MEL-28 melanoma) > 100 µM | GI50 (SK-MEL-5 melanoma) > 100 µM | GI50 (SK-OV-3 ovarian) > 100 µM | GI50 (SN12C renal) > 100 µM | GI50 (SNB-19 CNS) > 100 µM | GI50 (SNB-75 CNS) > 100 µM | GI50 (SR leukemia) > 100 µM | GI50 (SW-620 colon) > 100 µM | GI50 (T-47D breast) > 100 µM | GI50 (TK-10 renal) > 100 µM | GI50 (U251 CNS) > 100 µM | GI50 (UACC-257 melanoma) > 100 µM | GI50 (UACC-62 melanoma) > 100 µM | GI50 (UO-31 renal) > 100 µM
